Measurements taken from patent US12559492B2, “BRAF degraders” (C4 Therapeutics, Inc., priority 2020, dated 2026).

Molecular target: BRAF^V600E protein (Homo sapiens, UniProt P15056, V600E)
Experiment: HiBiT cellular BRAF V600E degradation assay
Type: cell-based
Settings: 24 h incubation; for DC50: A375.10 cells (HiBiT tag knocked in at N-terminal of BRAF V600E), concentration at which 50% of total cellular BRAF V600E is degraded; for Emax: A375.10 cells, Emax = amount of residual protein remaining in the cell after compound treatment, read-out: HiBit 24 h Emax

Chain of BRAF^V600E protein (P15056 whole entry V600E): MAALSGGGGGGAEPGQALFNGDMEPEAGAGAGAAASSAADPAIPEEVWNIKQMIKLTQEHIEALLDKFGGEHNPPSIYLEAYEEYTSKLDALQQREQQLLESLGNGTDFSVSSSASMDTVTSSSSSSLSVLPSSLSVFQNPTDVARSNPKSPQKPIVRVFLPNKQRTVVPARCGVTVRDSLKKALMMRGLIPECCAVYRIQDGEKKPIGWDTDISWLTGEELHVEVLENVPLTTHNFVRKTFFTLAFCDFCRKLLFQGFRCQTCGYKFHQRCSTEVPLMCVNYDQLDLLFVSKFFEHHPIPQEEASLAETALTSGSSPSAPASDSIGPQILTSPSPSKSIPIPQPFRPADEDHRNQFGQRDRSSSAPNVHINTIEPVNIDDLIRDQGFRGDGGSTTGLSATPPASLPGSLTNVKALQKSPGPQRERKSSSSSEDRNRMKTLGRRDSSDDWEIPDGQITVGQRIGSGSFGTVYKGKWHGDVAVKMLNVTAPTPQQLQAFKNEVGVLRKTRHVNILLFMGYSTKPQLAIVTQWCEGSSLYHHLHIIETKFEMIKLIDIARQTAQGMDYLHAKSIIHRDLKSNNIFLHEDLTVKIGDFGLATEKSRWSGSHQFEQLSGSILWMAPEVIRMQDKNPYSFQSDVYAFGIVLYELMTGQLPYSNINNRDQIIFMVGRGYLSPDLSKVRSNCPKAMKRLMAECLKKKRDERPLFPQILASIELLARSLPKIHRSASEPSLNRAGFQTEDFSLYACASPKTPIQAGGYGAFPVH

DC50 [nM] | Emax [%] | SMILES
3.89 | 7.76 | O=C1CCC(Nc2ccc(N3CCC(O)(CC(=O)N4CCN(c5ccc(-c6cnc7[nH]cc(C(=O)c8c(F)ccc(NS(=O)(=O)N9CC[C@@H](F)C9)c8F)c7c6)cc5)CC4)CC3)c(F)c2)C(=O)N1 (stereo partly drawn) [Example 191, (3R)—N-[3-[5-[4-[4-[2-[1-[4-[(2,6-dioxo-3-piperidyl)amino]-2-fluoro-phenyl]-4-hydroxy-4-piperidyl]acetyl]piperazin-1-yl]phenyl]-1H-pyrrolo[2,3-b]pyridine-3-carbonyl]-2,4-difluoro-phenyl]-3-fluoro-pyrrolidine-1-sulfonamide]
13.9 | 8.18 | CCN(C)S(=O)(=O)Nc1ccc(F)c(C(=O)c2c[nH]c3ncc(-c4ccc(N5CCN(C(=O)CC6(O)CCN(c7ccc(NC8CCC(=O)NC8=O)cc7F)CC6)CC5)c(C)c4)cc23)c1F (stereo not shown) [Example 192, 5-[4-[4-[2-[1-[4-[(2,6-dioxo-3-piperidyl)amino]-2-fluoro-phenyl]-4-hydroxy-4-piperidyl]acetyl]piperazin-1-yl]-3-methyl-phenyl]-3-[3-[[ethyl(methyl)sulfamoyl]amino]-2,6-difluoro-benzoyl]-1H-pyrrolo[2,3-b]pyridine]
1.7 | 7.39 | CCN(C)S(=O)(=O)Nc1ccc(F)c(C(=O)c2c[nH]c3ncc(-c4ccc(N5CCN(C(=O)CC6(O)CCN(c7ccc8c(N9CCC(=O)NC9=O)nn(C)c8c7)CC6)CC5)nc4)cc23)c1F [Example 193, 3-(2,4-dioxohexahydropyrimidin-1-yl)-6-[4-[2-[4-[5-[3-[3-[[ethyl(methyl)sulfamoyl]amino]-2,6-difluoro-benzoyl]-1H-pyrrolo[2,3-b]pyridin-5-yl]-2-pyridyl]piperazin-1-yl]-2-oxo-ethyl]-4-hydroxy-1-piperidyl]-1-methyl-indazole]
4.5 | 8.29 | CCN(C)S(=O)(=O)Nc1ccc(F)c(C(=O)c2c[nH]c3ncc(-c4cnc(N5CCN(C(=O)CC6(O)CCN(c7ccc(N8CCC(=O)NC8=O)cc7F)CC6)CC5)c(F)c4)cc23)c1F [Example 194, 5-[6-[4-[2-[1-[4-(2,4-dioxohexahydropyrimidin-1-yl)-2-fluoro-phenyl]-4-hydroxy-4-piperidyl]acetyl]piperazin-1-yl]-5-fluoro-3-pyridyl]-3-[3-[[ethyl(methyl)sulfamoyl]amino]-2,6-difluoro-benzoyl]-1H-pyrrolo[2,3-b]pyridine]
6.23 | 7.6 | CCN(C)S(=O)(=O)Nc1ccc(F)c(C(=O)c2c[nH]c3ncc(-c4cc(F)c(N5CCN(C(=O)CC6(O)CCN(c7ccc(NC8CCC(=O)NC8=O)cc7F)CC6)CC5)c(F)c4)cc23)c1F (stereo not shown) [Example 195, 5-[4-[4-[2-[1-[4-[(2,6-dioxo-3-piperidyl)amino]-2-fluoro-phenyl]-4-hydroxy-4-piperidyl]acetyl]piperazin-1-yl]-3,5-difluoro-phenyl]-3-[3-[[ethyl(methyl)sulfamoyl]amino]-2,6-difluoro-benzoyl]-1H-pyrrolo[2,3-b]pyridine]
1.14 | 6.81 | CCN(C)S(=O)(=O)Nc1ccc(F)c(C(=O)c2c[nH]c3ncc(-c4cnc(N5CC6(C5)CC(O)(C5CCN(c7ccc(NC8CCC(=O)NC8=O)cc7F)CC5)C6)nc4)cc23)c1F (stereo not shown) [Example 196, 5-[2-[6-[1-[4-[(2,6-dioxo-3-piperidyl)amino]-2-fluoro-phenyl]-4-piperidyl]-6-hydroxy-2-azaspiro[3.3]heptan-2-yl]pyrimidin-5-yl]-3-[3-[[ethyl(methyl)sulfamoyl]amino]-2,6-difluoro-benzoyl]-1H-pyrrolo[2,3-b]pyridine]
7.36 | 8.11 | CCN(C)S(=O)(=O)Nc1ccc(F)c(C(=O)c2c[nH]c3ncc(-c4ccc(N5CCN(C(=O)CC6(O)CCN(c7ccc(NC8CCC(=O)NC8=O)cc7C(F)F)CC6)CC5)nc4)cc23)c1F (stereo not shown) [Example 197, 5-[6-[4-[2-[1-[2-(difluoromethyl)-4-[(2,6-dioxo-3-piperidyl)amino]phenyl]-4-hydroxy-4-piperidyl]acetyl]piperazin-1-yl]-3-pyridyl]-3-[3-[[ethyl(methyl)sulfamoyl]amino]-2,6-difluoro-benzoyl]-1H-pyrrolo[2,3-b]pyridine]
2.42 | 6.19 | CCN(C)S(=O)(=O)Nc1ccc(F)c(C(=O)c2c[nH]c3ncc(-c4ccc(N5CCN(C(=O)CC6(O)CCN(c7ccc(NC8CCC(=O)NC8=O)cc7F)CC6)CC5)c(F)c4)cc23)c1F (stereo not shown) [Example 198, 5-[4-[4-[2-[1-[4-[(2,6-dioxo-3-piperidyl)amino]-2-fluoro-phenyl]-4-hydroxy-4-piperidyl]acetyl]piperazin-1-yl]-3-fluoro-phenyl]-3-[3-[[ethyl(methyl)sulfamoyl]amino]-2,6-difluoro-benzoyl]-1H-pyrrolo[2,3-b]pyridine]
28.3 | 7.17 | CCN(C)S(=O)(=O)Nc1ccc(F)c(C(=O)c2c[nH]c3ncc(-c4cnc(N5CC6(CC(C7CCN(c8ccc(NC9CCC(=O)NC9=O)cc8F)CC7)C6)C5)nc4)cc23)c1F (stereo not shown) [Example 199, 5-[2-[6-[1-[4-[(2,6-dioxo-3-piperidyl)amino]-2-fluoro-phenyl]-4-piperidyl]-2-azaspiro[3.3]heptan-2-yl]pyrimidin-5-yl]-3-[3-[[ethyl(methyl)sulfamoyl]amino]-2,6-difluoro-benzoyl]-1H-pyrrolo[2,3-b]pyridine]
4.19 | 6.67 | CCN(C)S(=O)(=O)Nc1ccc(Cl)c(C(=O)c2c[nH]c3ncc(-c4ccc(N5CCN(C(=O)CC6(O)CCN(c7ccc(NC8CCC(=O)NC8=O)cc7F)CC6)CC5)nc4)cc23)c1F (stereo not shown) [Example 201, 3-[6-chloro-3-[[ethyl(methyl)sulfamoyl]amino]-2-fluoro-benzoyl]-5-[6-[4-[2-[1-[4-[(2,6-dioxo-3-piperidyl)amino]-2-fluoro-phenyl]-4-hydroxy-4-piperidyl]acetyl]piperazin-1-yl]-3-pyridyl]-1H-pyrrolo[2,3-b]pyridine]
2.1 | 7.44 | CCN(C)S(=O)(=O)Nc1ccc(F)c(C(=O)c2c[nH]c3ncc(-c4ccc(N5CCN(C(=O)CC6(O)CCN(c7ccc8c(N9CCC(=O)NC9=O)nn(C)c8c7)CC6)CC5)cc4)cc23)c1F [Example 202, 3-(2,4-dioxohexahydropyrimidin-1-yl)-6-[4-[2-[4-[4-[3-[3-[[ethyl(methyl)sulfamoyl]amino]-2,6-difluoro-benzoyl]-1H-pyrrolo[2,3-b]pyridin-5-yl]phenyl]piperazin-1-yl]-2-oxo-ethyl]-4-hydroxy-1-piperidyl]-1-methyl-indazole]
2.28 | 5.13 | CCN(C)S(=O)(=O)Nc1ccc(F)c(C(=O)c2c[nH]c3ncc(-c4cnc(N5CC6(C5)CN(C5CCN(c7ccc(NC8CCC(=O)NC8=O)cc7F)CC5)C6)nc4)cc23)c1F (stereo not shown) [Example 203, 5-[2-[2-[1-[4-[(2,6-dioxo-3-piperidyl)amino]-2-fluoro-phenyl]-4-piperidyl]-2,6-diazaspiro[3.3]heptan-6-yl]pyrimidin-5-yl]-3-[3-[[ethyl(methyl)sulfamoyl]amino]-2,6-difluoro-benzoyl]-1H-pyrrolo[2,3-b]pyridine]
3.8 | 8.6 | CCN(C)S(=O)(=O)Nc1ccc(F)c(C(=O)c2c[nH]c3ncc(-c4cnc(N5CCN(C(=O)CC6(O)CCN(c7ccc(NC8CCC(=O)NC8=O)cc7C(F)F)CC6)CC5)nc4)cc23)c1F (stereo not shown) [Example 204, 5-[2-[4-[2-[1-[2-(difluoromethyl)-4-[(2,6-dioxo-3-piperidyl)amino]phenyl]-4-hydroxy-4-piperidyl]acetyl]piperazin-1-yl]pyrimidin-5-yl]-3-[3-[[ethyl(methyl)sulfamoyl]amino]-2,6-difluoro-benzoyl]-1H-pyrrolo[2,3-b]pyridine]
2.34 | 6.63 | CCN(C)S(=O)(=O)Nc1ccc(F)c(C(=O)c2c[nH]c3ncc(-c4cnc(N5CCN(C(=O)CC6(O)CCN(c7ccc(C8CCC(=O)NC8=O)cc7F)CC6)CC5)c(F)c4)cc23)c1F (stereo not shown) [Example 205, 5-[6-[4-[2-[1-[4-(2,6-dioxo-3-piperidyl)-2-fluoro-phenyl]-4-hydroxy-4-piperidyl]acetyl]piperazin-1-yl]-5-fluoro-3-pyridyl]-3-[3-[[ethyl(methyl)sulfamoyl]amino]-2,6-difluoro-benzoyl]-1H-pyrrolo[2,3-b]pyridine]
2.28 | 6.9 | CCN(C)S(=O)(=O)Nc1ccc(F)c(C(=O)c2c[nH]c3ncc(-c4cnc(N5CCN(C(=O)CC6(O)CCN(c7ccc(N[C@H]8CCC(=O)NC8=O)cc7Cl)CC6)CC5)nc4)cc23)c1F [Example 206, 5-[2-[4-[2-[1-[2-chloro-4-[[(3S)-2,6-dioxo-3-piperidyl]amino]phenyl]-4-hydroxy-4-piperidyl]acetyl]piperazin-1-yl]pyrimidin-5-yl]-3-[3-[[ethyl(methyl)sulfamoyl]amino]-2,6-difluoro-benzoyl]-1H-pyrrolo[2,3-b]pyridine]
1.23 | 6.98 | CCN(C)S(=O)(=O)Nc1cc(F)cc(C(=O)c2c[nH]c3ncc(-c4ccc(N5CCN(C(=O)CC6(O)CCN(c7ccc(NC8CCC(=O)NC8=O)cc7F)CC6)CC5)nc4)cc23)c1F (stereo not shown) [Example 207, 5-[6-[4-[2-[1-[4-[(2,6-dioxo-3-piperidyl)amino]-2-fluoro-phenyl]-4-hydroxy-4-piperidyl]acetyl]piperazin-1-yl]-3-pyridyl]-3-[3-[[ethyl(methyl)sulfamoyl]amino]-2,5-difluoro-benzoyl]-1H-pyrrolo[2,3-b]pyridine]
1.73 | 7.34 | CCN(C)S(=O)(=O)Nc1ccc(F)c(C(=O)c2c[nH]c3ncc(-c4ccc(N5CCN(C(=O)CC6(O)CCN(c7ccc(N[C@H]8CCC(=O)NC8=O)cc7Cl)CC6)CC5)nc4)cc23)c1F [Example 208, 5-[6-[4-[2-[1-[2-chloro-4-[[(3S)-2,6-dioxo-3-piperidyl]amino]phenyl]-4-hydroxy-4-piperidyl]acetyl]piperazin-1-yl]-3-pyridyl]-3-[3-[[ethyl(methyl)sulfamoyl]amino]-2,6-difluoro-benzoyl]-1H-pyrrolo[2,3-b]pyridine]
